Assay results as given in the METLIN SMRT retention time set (Domingo-Almenara et al. 2019).

Test: gradient 5% acetonitrile 3 min, to 50% in 2 min, to 85% in 15 min, held 3 min, 100 µL/min
Details: column: Zorbax Extend-C18 2.1 x 50 mm; eluents: water / acetonitrile, 0.1% formic acid
How it was run: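 Retention times come from adduct peaks that were picked computationally and then checked by hand. The standards, pure and pooled in mixtures of ~100 molecules, were run on a Zorbax Extend-C18 column (2.1 × 50 mm, 1.8 μm) at 100 μL/min with water and acetonitrile, each with 0.1% formic acid. Detection was by quadrupole time-of-flight mass spectrometry in positive and negative ionization mode, with a dead volume of 40 μL and a dwell volume of 900 μL.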

| Structure (SMILES) | RP-LC retention time |
| --- | --- |
| CCN1CCCn2cc(S(=O)(=O)Nc3ccc(F)cc3)cc2C1=O | 721 s |
| Cc1ccc(C)c(Cn2nc3c(S(=O)(=O)N4CCCC4)cccn3c2=O)c1 | 914 s |
| O=C(NCCC1=CCCCC1)C1CCCN(C(=O)Cc2cccc3ccccc23)C1 (stereo unspecified) | 1030 s |
| N#CCCN1CCN(c2ccc(NC(=O)C3CCC3)c(C(=O)O)c2)CC1 | 586 s |
| CCCc1ccc(S(=O)(=O)N2CCc3c(c(-c4nnc(-c5ccc(C)cc5)o4)nn3C)C2)cc1 | 1160 s |
| O=C(c1ccc(Cl)cc1Cl)N1CCN(c2cc(-c3ccccc3)[nH]n2)CC1 | 936 s |
| Cc1ccccc1-c1noc(Cn2c(=O)n(-c3ccccc3F)c(=O)c3sccc32)n1 | 1030 s |
| CNC(=O)c1ccc(N2C(=S)N(c3cnc(C#N)c(C(F)(F)F)c3)C(=O)C23CCC3)cc1F | 993 s |
| CCC(=O)N(C1CCOCC1)C1CCN(Cc2cc(F)c(F)c(F)c2)CC1 | 625 s |
| Cc1ccc(C(=O)N2C[C@@H]3C[C@H](NC(=O)c4cccs4)[C@H]2C3)cn1 | 581 s |
| Cc1ccc2c(c1)OCC(=O)N2Cc1nc(-c2ccc(C(C)(C)C)cc2)no1 | 1290 s |
| Cc1cc(C)cc(Nc2nc(C)cc3nn(CC(=O)NC4CCCC4)c(=O)n23)c1 | 998 s |
| COc1cccc(-c2ccc(=O)n(CCCC(=O)Nc3cccc4nsnc34)n2)c1 | 764 s |
| CC(C)N1CCN(S(=O)(=O)c2ccc(-c3nnc(C4CC4)o3)o2)CC1 | 611 s |
| O=C(Nc1nnc(-c2ccncc2)o1)c1cc(=O)c2ccccc2o1 | 600 s |
| COc1cc(C(=O)N2CCN(c3cc(-c4cccs4)[nH]n3)CC2)cc(OC)c1OC | 699 s |
| Cc1nn(-c2ccc(-c3ccccc3)nn2)c(C)c1S(=O)(=O)N1CCN(C)CC1 | 644 s |
| O=C(Cc1cn2cc(F)ccc2n1)Nc1ccc(F)cc1 | 594 s |

| Structure (SMILES) | RP-LC retention time |
| --- | --- |
| O=C1NCCCCCCN(Cc2ccc(C(F)(F)F)cc2)[C@H]2CCC[C@@H]12 | 700 s |
| COCCN1C(=O)c2ccccc2C(C(=O)N2CCN(Cc3ccccc3)CC2)C1c1cccs1 (stereo unspecified) | 661 s |
| Cc1cc(F)ccc1NC(=O)C1CCN(c2cnc3ccccc3n2)CC1 | 780 s |
| O=C(NC1CCS(=O)(=O)C1)C1Cn2cccc2C(=O)N1Cc1ccccc1 (stereo unspecified) | 652 s |
| CCOC(=O)COc1cc(-c2ccccc2)nc2ccc(NC(=O)C3CC3)cc12 | 738 s |
| O=C(NCc1ccc(-c2noc(Cc3ccc(F)cc3)n2)s1)C1CC1 | 894 s |
| CC(C)NC(=O)C1CCN(c2nc3ccc(-c4ccsc4)nc3s2)CC1 | 796 s |
| Cc1nc(-c2cc(S(=O)(=O)NCC(=O)NCc3ccccc3Cl)c(C)s2)no1 | 870 s |
| CCn1c(=O)c2ccccc2n(Cc2nc(-c3ccccc3Br)no2)c1=O | 1020 s |
| Fc1ccc(CN(C2=NCCN2)c2c(Cl)cccc2Cl)cc1 | 760 s |
| COc1cccc(-c2cc(C(=O)N3CCCC3c3c(C)noc3C)on2)c1 (stereo unspecified) | 872 s |
| CCOc1ccccc1NC(=O)N1CCCC1c1nc(-c2cccc(C)c2)no1 (stereo unspecified) | 858 s |
| O=C(c1ccoc1)N1CC(Oc2ccc(-c3nc(-c4ccccc4)no3)cc2)C1 | 1040 s |
| Cc1ccc(CNC(=O)c2cccc(-c3cnc(N4CCCC4)nc3)c2)o1 | 817 s |
| CN1C(=O)C(C)(C(=O)NCc2ccccc2Cl)Oc2cccnc21 (stereo unspecified) | 795 s |
| Cc1c(CC(=O)N2CCC(C(N)=O)CC2)c(=O)oc2cc3occ(-c4ccc(F)cc4)c3cc12 | 768 s |
| Cc1cc(N2CCN(C(=O)c3cccc(N(C)C)c3)CC2)nc2nncn12 | 1010 s |
| CCOC(=O)C1CCN(C(=O)CCC(=O)N2CCCn3nc(-c4cn(C)c5ccccc45)cc32)CC1 | 798 s |
